# Tested on: patients after acute myocardial infarction
# Assay: Life quality, Seattle Angina Questionnaire (SAQ), same clinical trial
# Format: in vivo, human
# Conditions: PP
# Excerpt: 3508 patients who were in accordance with the diagnostic standards of AMI for 28 days to 2 years and differentiated as Qi deficiency and blood stagnation syndrome by TCM were studied. 0.5 g Chinese medicine composition prepared by the method of EXAMPLE 1 (Coded as QSYQ) was administrated half an hour after meal, 3 times per day.
# There were 19 questions in the Seattle angina questionnaire (SAQ), including 5 parts: physical limitation (PL), anginal stability (AS), anginal frequency (AF), treatment satisfaction (TS) and disease perception (DP). After being given necessary explanation by doctors, the questions were answered independently by patients.
# They included the overall survival time, angina pectoris score, TCM symptom score and life quality score, where angina pectoris score, TCM symptom score and life quality score were evaluated at randomization, in 1st, 3rd, 6th, 9th, 12th month after treatment and 18th month after follow-up.
# All evaluation results of SAQ were described during the period of observation, and Wilcoxon rank sum test was used for inter-group comparison.
# The evaluation results in the SAQ were depicted in different observations, and inter-group comparison was tested by Wilcoxon Rank-sum test.
structure (smiles),measurement,setting,value
"CC(=O)Oc1ccccc1C(=O)O [Control group, aspirine]","SAQ Question 1-7: Moserately limited, patients (%)",3 months after treatment,(14.91%)
same,"SAQ Question 1-7: Not limited, patients (%)",3 months after treatment,(13.46%)
same,"SAQ Question 1-7: Other reasons, patients (%)",3 months after treatment,(3.11%)
same,"SAQ Question 1-7: Severely limited, patients (%)",3 months after treatment,(16.01%)
same,"SAQ Question 1-7: Slightly limited, patients (%)",3 months after treatment,(28.71%)
same,"SAQ Question 1-8: Mildly limited, patients (%)",3 months after treatment,(25.82%)
same,"SAQ Question 1-8: Moderately limited, patients (%)",3 months after treatment,(17.90%)
same,"SAQ Question 1-8: Not limited, patients (%)",3 months after treatment,(10.48%)
same,"SAQ Question 1-8: Other reasons, patients (%)",3 months after treatment,(2.91%)
same,"SAQ Question 1-8: Severely limieted, patients (%)",3 months after treatment,(21.30%)
same,"SAQ Question 1-8: Slightly limited, patients (%)",3 months after treatment,(21.58%)
same,"8th question: Dissatisfied, patients (%)",6 months after treatment,(0.07%)
same,"8th question: Highly satisfied, patients (%)",6 months after treatment,(20.69%)
same,"8th question: Mostly satisfied, patients (%)",6 months after treatment,(56.70%)
same,"8th question: Partly satisfied, patients (%)",6 months after treatment,(20.96%)
same,"9th question: Few, patients (%)",6 months after treatment,(34.99%)
same,"9th question: Mild, patients (%)",6 months after treatment,(34.44%)
same,"9th question: Moderate, patients (%)",6 months after treatment,(10.54%)
same,"9th question: Severe, patients (%)",6 months after treatment,(0.21%)
same,"9th question: Uneffective, patients (%)",6 months after treatment,(19.83%)
same,"10th question: Dissatisfied, patients (%)",6 months after treatment,(20.36%)
same,"10th question: Highly satisfied, patients (%)",6 months after treatment,(4.88%)
same,"10th question: Mostly dissatisfied, patients (%)",6 months after treatment,(21.32%)
same,"10th question: Mostly satisfied, patients (%)",6 months after treatment,(26.34%)
same,"10th question: Partly satisfied, patients (%)",6 months after treatment,(27.10%)
same,"11th question: Continuously worried, patients (%)",6 months after treatment,(3.44%)
same,"11th question: No worried, patients (%)",6 months after treatment,(4.81%)
same,"11th question: Occasionally worried, patients (%)",6 months after treatment,(42.68%)
same,"11th question: Often worried, patients (%)",6 months after treatment,(14.57%)
same,"11th question: Seldom worried, patients (%)",6 months after treatment,(34.50%)
same,"SAQ 4th question, 1-2 times per week: % of patients",6 months after treatment,(18.08%)
same,"SAQ 4th question, 1-2 times per week: number of patients",6 months after treatment,263
same,"SAQ 4th question, 1-3 times per day: % of patients",6 months after treatment,(3.85%)
same,"SAQ 4th question, 1-3 times per day: number of patients",6 months after treatment,56
same,"SAQ 4th question, <1 time per week: % of patients",6 months after treatment,(11.34%)
same,"SAQ 4th question, <1 time per week: number of patients",6 months after treatment,165
same,"SAQ 4th question, Not used: % of patients",6 months after treatment,(60.14%)
same,"SAQ 4th question, Not used: number of patients",6 months after treatment,875
same,"SAQ 4th question, ≧3 times per week: % of patients",6 months after treatment,(6.53%)
same,"SAQ 4th question, ≧3 times per week: number of patients",6 months after treatment,95
same,"SAQ 4th question, ≧4 times per day: % of patients",6 months after treatment,(0.07%)
same,"SAQ 4th question, ≧4 times per day: number of patients",6 months after treatment,1
same,"SAQ 5th question, 1-2 times per week: % of patients",6 months after treatment,(27.01%)
same,"SAQ 5th question, 1-2 times per week: number of patients",6 months after treatment,393
same,"SAQ 5th question, 1-3 times per day: % of patients",6 months after treatment,(11.00%)
same,"SAQ 5th question, 1-3 times per day: number of patients",6 months after treatment,160
same,"SAQ 5th question, <1 time per week: % of patients",6 months after treatment,(28.18%)
same,"SAQ 5th question, <1 time per week: number of patients",6 months after treatment,410
same,"SAQ 5th question, No onset: % of patients",6 months after treatment,(4.47%)
same,"SAQ 5th question, No onset: number of patients",6 months after treatment,65
same,"SAQ 5th question, ≧3 times per week: % of patients",6 months after treatment,(28.93%)
same,"SAQ 5th question, ≧3 times per week: number of patients",6 months after treatment,421
same,"SAQ 5th question, ≧4 times per day: % of patients",6 months after treatment,(0.41%)
same,"SAQ 5th question, ≧4 times per day: number of patients",6 months after treatment,6
same,"SAQ 6th question, Dissatisfied: % of patients",6 months after treatment,(0.00%)
same,"SAQ 6th question, Dissatisfied: number of patients",6 months after treatment,0
same,"SAQ 6th question, Highly satisfied: % of patients",6 months after treatment,(22.27%)
same,"SAQ 6th question, Highly satisfied: number of patients",6 months after treatment,324
same,"SAQ 6th question, Mostly dissatisfied: % of patients",6 months after treatment,(1.65%)
same,"SAQ 6th question, Mostly dissatisfied: number of patients",6 months after treatment,24
same,"SAQ 6th question, Mostly satisfied: % of patients",6 months after treatment,(55.95%)
same,"SAQ 6th question, Mostly satisfied: number of patients",6 months after treatment,814
same,"SAQ 6th question, Partly satisfied: % of patients",6 months after treatment,(20.14%)
same,"SAQ 6th question, Partly satisfied: number of patients",6 months after treatment,293
same,"SAQ 7th question, Dissatisfied: % of patients",6 months after treatment,(0.07%)
same,"SAQ 7th question, Dissatisfied: number of patients",6 months after treatment,1
same,"SAQ 7th question, Highly satisfied: % of patients",6 months after treatment,(25.67%)
same,"SAQ 7th question, Highly satisfied: number of patients",6 months after treatment,373
same,"SAQ 7th question, Mostly dissatisfied: % of patients",6 months after treatment,(1.10%)
same,"SAQ 7th question, Mostly dissatisfied: number of patients",6 months after treatment,16
same,"SAQ 7th question, Mostly satisfied: % of patients",6 months after treatment,(58.22%)
same,"SAQ 7th question, Mostly satisfied: number of patients",6 months after treatment,846
same,"SAQ 7th question, Partly satisfied: % of patients",6 months after treatment,(14.93%)
same,"SAQ 7th question, Partly satisfied: number of patients",6 months after treatment,217
same,"SAQ Question 1-1 Mildly limited, number of patients",6 months after treatment,22
same,"SAQ Question 1-1 Mildly limited, percent of patients",6 months after treatment,(1.52%)
same,"SAQ Question 1-1 Moderately limited, number of patients",6 months after treatment,4
